# Experiments:
# SLA-1*04:01 = experiment: Peptide-MHC class I complex stability, scintillation proximity assay (SPA); parameters: species or system pig; conditions: biotinylated recombinant SLA heavy chain, 125I-β2m, excess unlabeled β2m, read every 40 min, number only if t1/2 ≥ 0.5 h, '-' = not stably binding
# Method in brief: (§1)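 Biotinylated recombinant heavy chains captured on streptavidin scintillation plates with 125I-β2m and peptide; signal read every 40 min under dissociating conditions with excess unlabeled β2m. Signal duration gives complex half-life; ≥ 0.5 h counted as stable binder.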
# SLA-2*04:01 = experiment: as above; parameters: species or system pig; conditions: biotinylated recombinant SLA heavy chain, 125I-β2m, excess unlabeled β2m, read every 40 min, number only if t1/2 ≥ 0.5 h, '-' = not stably binding
# Method in brief: as §1
# SLA-3*04:01 = experiment: as above; parameters: species or system pig; conditions: biotinylated recombinant SLA heavy chain, 125I-β2m, excess unlabeled β2m, read every 40 min, number only if t1/2 ≥ 0.5 h, '-' = not stably binding
# Method in brief: as §1
# SLA-1*07:02 = experiment: as above; parameters: species or system pig; conditions: biotinylated recombinant SLA heavy chain, 125I-β2m, excess unlabeled β2m, read every 40 min, number only if t1/2 ≥ 0.5 h, '-' = not stably binding
# Method in brief: as §1
# PBMCs = experiment: In vitro peptide stimulation of porcine PBMCs, IFN-γ release assay (ELISA); format: cell-based, pig; parameters: key to T cell response: “x” indicates that a response was found to this given peptide at least once; conditions: PBMCs of immunized pigs, 2 × 10^5/well, 5 μg/ml peptide, 67.5–70.0 h, IFN-γ ELISA; response = 2-fold increase vs day -2 and at least 25 pg/ml IFN-γ, found at least once; SLA restriction not included
Sequence,Binder (t1/2 ≥ 0.5 h): half-life of peptide-SLA-1*04:01 complex (SLA-1*04:01),Binder (t1/2 ≥ 0.5 h): half-life of peptide-SLA-2*04:01 complex (SLA-2*04:01),Binder (t1/2 ≥ 0.5 h): half-life of peptide-SLA-3*04:01 complex (SLA-3*04:01),Binder (t1/2 ≥ 0.5 h): half-life of peptide-SLA-1*07:02 complex (SLA-1*07:02),T cell response (PBMCs)
"EDYDRLRPLSY [RhoC14, porcine RhoC-derived 9-11mer peptide]",- (t1/2 (hours) is listed for each of the stably binding peptides (t1/2 ≥ 0.5 h)),- (t1/2 (hours) is listed for each of the stably binding peptides (t1/2 ≥ 0.5 h)),–,–,–
"KLFFNVLRIY [IDO53, porcine IDO-derived 9-11mer peptide]",–,–,- (t1/2 (hours) is listed for each of the stably binding peptides (t1/2 ≥ 0.5 h)),- (t1/2 (hours) is listed for each of the stably binding peptides (t1/2 ≥ 0.5 h)),–
"MALDWWSPM [IDO75, porcine IDO-derived 9-11mer peptide]",–,–,- (t1/2 (hours) is listed for each of the stably binding peptides (t1/2 ≥ 0.5 h)),0.5 h,x
"MQRLAHLVLGY [IDO79, porcine IDO-derived 9-11mer peptide]",–,- (t1/2 (hours) is listed for each of the stably binding peptides (t1/2 ≥ 0.5 h)),- (t1/2 (hours) is listed for each of the stably binding peptides (t1/2 ≥ 0.5 h)),- (t1/2 (hours) is listed for each of the stably binding peptides (t1/2 ≥ 0.5 h)),–
"RGTGGTNVIDF [IDO103, porcine IDO-derived 9-11mer peptide]",- (t1/2 (hours) is listed for each of the stably binding peptides (t1/2 ≥ 0.5 h)),–,–,–,–
"ASAIKVIPTLF [IDO8, porcine IDO-derived 9-11mer peptide]",- (t1/2 (hours) is listed for each of the stably binding peptides (t1/2 ≥ 0.5 h)),- (t1/2 (hours) is listed for each of the stably binding peptides (t1/2 ≥ 0.5 h)),–,–,–
"YVDPKLFFNV [IDO135, porcine IDO-derived 9-11mer peptide]",- (t1/2 (hours) is listed for each of the stably binding peptides (t1/2 ≥ 0.5 h)),–,–,–,–
"GSAAQSSIF [IDO33, porcine IDO-derived 9-11mer peptide]",- (t1/2 (hours) is listed for each of the stably binding peptides (t1/2 ≥ 0.5 h)),- (t1/2 (hours) is listed for each of the stably binding peptides (t1/2 ≥ 0.5 h)),–,–,–
"SLESGPSVREF [IDO116, porcine IDO-derived 9-11mer peptide]",0.8 h,–,–,–,x
"RISAFGYLE [RhoC43, porcine RhoC-derived 9-11mer peptide]",- (t1/2 (hours) is listed for each of the stably binding peptides (t1/2 ≥ 0.5 h)),–,–,–,–
"EVDGKQVELAL [RhoC22, porcine RhoC-derived 9-11mer peptide]",0.6 h,–,–,–,–
"KGDALLQETY [IDO48, porcine IDO-derived 9-11mer peptide]",0.7 h,- (t1/2 (hours) is listed for each of the stably binding peptides (t1/2 ≥ 0.5 h)),–,–,x
"VQAMVSLRNY [IDO129, porcine IDO-derived 9-11mer peptide]",1.2 h,- (t1/2 (hours) is listed for each of the stably binding peptides (t1/2 ≥ 0.5 h)),–,–,x
"DTDVILMCF [RhoC10, porcine RhoC-derived 9-11mer peptide]",1.3 h,–,–,–,–
"AIAKNLPEL [IDO2, porcine IDO-derived 9-11mer peptide]",- (t1/2 (hours) is listed for each of the stably binding peptides (t1/2 ≥ 0.5 h)),–,–,–,–
"PPAHRNFLHSL [IDO98, porcine IDO-derived 9-11mer peptide]",–,–,–,0.7 h,x
"YADCVLANW [IDO133, porcine IDO-derived 9-11mer peptide]",5.4 h,1.7 h,–,–,x
"NPLLSEGLLY [IDO88, porcine IDO-derived 9-11mer peptide]",–,–,–,24.0 h,x
"MVSLRNYHL [IDO83, porcine IDO-derived 9-11mer peptide]",- (t1/2 (hours) is listed for each of the stably binding peptides (t1/2 ≥ 0.5 h)),–,–,–,–
"SLENIPEKW [RhoC49, porcine RhoC-derived 9-11mer peptide]",- (t1/2 (hours) is listed for each of the stably binding peptides (t1/2 ≥ 0.5 h)),- (t1/2 (hours) is listed for each of the stably binding peptides (t1/2 ≥ 0.5 h)),–,–,–

# — PMC4584933, “Establishing the pig as a large animal model for vaccine development against human cancer” (Frontiers in Genetics, 2015)
